“And” between values parts separate entries of the source, which are not always exact repeats. Equal entries are not always repeated.
Assays:
[1] = tested on: HEK-293T-ACE2^h cells; test: Cytotoxicity by MTT assay; type: cell-based, human; conditions: for CC0 (maximum nontoxic concentration): 4 h incubation; for TC50 (concentration causing 50% host cells' death): 48 h treatment
Experimental: The cytotoxic effect of honokiol derivatives on HEK-293T-ACE2^h cells was evaluated by MTT assay. HEK-293T-ACE2^h cells were seed into 96-well plate at a density of 1×10^4 cells per well and then treated with various concentrations of compounds for either 4 or 48 h. Then 10 μL of 3-(4, 5-dimethylthiazol-2-yl)-2, 5-diphenyltetrazolium bromide (MTT) (5 mg/mL) solution was added to each well for another 4 h incubation. The supernatants were then removed, and the formed formazan crystals were dissolved in 100 μL DMSO and the plate was agitated for 10 min. Relative cell viability was assessed by measuring the absorbance at 570 nm by using a microplate reader (Infinite M200 PRO Microplate Reader, Tecan, Swiss). The survival rate of HEK-293T-ACE2^h cells was calculated using the following formula: [(ODtreated-ODblank) / (ODcontrol-ODblank)] × 100%. The 50% toxic concentration (TC50) for 48 h was calculated by the GraphPad Prism 8.0 software (La Jolla, CA, USA). The maximum nontoxic concentration (CC0) for 4 h was determined as the maximum tested concentration in which the cell viability was 100%. Data were obtained from three independent experiments.

[2] = tested on: SARS-CoV-2 spike pseudovirus; test: microbe, parasite or virus in culture; type: cell-based; conditions: for IC50: Severe acute respiratory syndrome coronavirus 2, read-out: IC50 (inhibition of 50% viral entry into host cells)
[3] = molecular target: T1, human ACE2 protein (Homo sapiens, UniProt Q9BYF1); test: Biolayer interferometry (BLI) binding assay with human ACE2; conditions: His-tagged human ACE2 on Ni-NTA biosensor, 30 °C, 1:1 model
T1 construct: purchased Sino Biological

[4] = molecular target: T2, SARS-CoV-2 spike RBD binding with ACE2 protein (Homo sapiens, UniProt Q9BYF1); test: Competitive ELISA of spike RBD binding with ACE2; type: biochemical; conditions: read-out: Inhibitory rate of spike RBD-ACE2 binding
T2 construct: purchased Sino Biological

[5] = molecular target: T3, SARS-CoV-2 spike RBD protein (Severe acute respiratory syndrome coronavirus 2, UniProt P0DTC2); type: binding
T3 construct: purchased Sino Biological

T2 sequence (Q9BYF1 18-740): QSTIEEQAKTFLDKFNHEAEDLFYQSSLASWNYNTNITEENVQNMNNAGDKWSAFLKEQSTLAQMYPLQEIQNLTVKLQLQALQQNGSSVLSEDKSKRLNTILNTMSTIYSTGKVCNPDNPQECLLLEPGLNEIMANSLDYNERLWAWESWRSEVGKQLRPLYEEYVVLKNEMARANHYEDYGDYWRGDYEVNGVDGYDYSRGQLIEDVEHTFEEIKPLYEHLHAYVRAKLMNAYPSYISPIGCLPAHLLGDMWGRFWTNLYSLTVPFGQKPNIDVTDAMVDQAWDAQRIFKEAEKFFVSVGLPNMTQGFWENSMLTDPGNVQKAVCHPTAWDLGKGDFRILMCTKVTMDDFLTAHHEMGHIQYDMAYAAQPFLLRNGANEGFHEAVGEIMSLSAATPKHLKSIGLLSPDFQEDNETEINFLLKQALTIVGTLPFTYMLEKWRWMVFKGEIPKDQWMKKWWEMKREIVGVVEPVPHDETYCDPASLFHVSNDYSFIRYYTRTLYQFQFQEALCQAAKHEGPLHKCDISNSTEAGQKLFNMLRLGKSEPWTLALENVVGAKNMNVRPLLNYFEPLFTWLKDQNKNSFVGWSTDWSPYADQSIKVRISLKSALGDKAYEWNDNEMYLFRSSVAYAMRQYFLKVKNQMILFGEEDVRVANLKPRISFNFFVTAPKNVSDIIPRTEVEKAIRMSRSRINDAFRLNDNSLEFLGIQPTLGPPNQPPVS
T1 sequence (Q9BYF1 18-805): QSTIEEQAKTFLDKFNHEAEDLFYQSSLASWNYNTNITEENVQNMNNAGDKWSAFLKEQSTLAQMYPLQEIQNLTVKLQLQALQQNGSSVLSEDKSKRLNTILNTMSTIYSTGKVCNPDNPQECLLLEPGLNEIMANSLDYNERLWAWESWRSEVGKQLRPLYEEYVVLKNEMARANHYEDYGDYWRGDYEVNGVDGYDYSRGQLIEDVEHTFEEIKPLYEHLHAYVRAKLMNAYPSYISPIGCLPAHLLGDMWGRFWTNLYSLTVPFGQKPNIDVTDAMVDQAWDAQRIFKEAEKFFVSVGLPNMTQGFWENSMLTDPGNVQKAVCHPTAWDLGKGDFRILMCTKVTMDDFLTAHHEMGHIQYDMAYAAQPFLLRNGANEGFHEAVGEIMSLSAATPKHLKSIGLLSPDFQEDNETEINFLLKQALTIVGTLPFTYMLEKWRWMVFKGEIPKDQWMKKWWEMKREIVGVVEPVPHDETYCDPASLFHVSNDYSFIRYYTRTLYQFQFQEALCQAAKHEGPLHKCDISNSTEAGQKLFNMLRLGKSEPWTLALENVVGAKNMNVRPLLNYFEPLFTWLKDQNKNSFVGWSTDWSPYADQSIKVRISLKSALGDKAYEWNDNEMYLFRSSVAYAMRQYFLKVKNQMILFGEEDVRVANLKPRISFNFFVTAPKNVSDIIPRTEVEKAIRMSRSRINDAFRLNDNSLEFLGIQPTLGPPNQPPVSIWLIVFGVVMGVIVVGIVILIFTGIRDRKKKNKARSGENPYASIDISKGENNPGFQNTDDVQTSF

C=CCc1cc(-c2cc(CC=C)c3oc(=O)n(Cc4nnc(-c5ccccc5)o4)c3c2)c2oc(=O)n(Cc3nnc(-c4ccccc4)o3)c2c1 [Compound 6a]
CC0 (maximum nontoxic concentration) [1]: >100 µM
TC50 (concentration causing 50% host cells' death) [1]: >100 µM
SI (selectivity index, TC50/IC50) [2]: >3.42
IC50 [2]: 29.2 ± 0.71 µM
Kd [3]: 8.41 ± 0.43 µM

C=CCc1cc(-c2cc(CC=C)c3oc(=O)n(Cc4nnc(-c5ccccc5Cl)o4)c3c2)c2oc(=O)n(Cc3nnc(-c4ccccc4Cl)o3)c2c1 [Compound 6b]
CC0 (maximum nontoxic concentration) [1]: >100 µM
TC50 (concentration causing 50% host cells' death) [1]: >100 µM
IC50 [2]: > 100 µM

C=CCc1cc(-c2cc(CC=C)c3oc(=O)n(Cc4nnc(-c5cccc(Cl)c5)o4)c3c2)c2oc(=O)n(Cc3nnc(-c4cccc(Cl)c4)o3)c2c1 [Compound 6c]
CC0 (maximum nontoxic concentration) [1]: >100 µM
TC50 (concentration causing 50% host cells' death) [1]: >100 µM
IC50 [2]: > 100 µM

C=CCc1cc(-c2cc(CC=C)c3oc(=O)n(Cc4nnc(-c5ccc(Cl)cc5)o4)c3c2)c2oc(=O)n(Cc3nnc(-c4ccc(Cl)cc4)o3)c2c1 [Compound 6d]
CC0 (maximum nontoxic concentration) [1]: 50 µM
IC50 [2]: > 50 µM

C=CCc1cc(-c2cc(CC=C)c3oc(=O)n(Cc4nnc(-c5ccccc5Br)o4)c3c2)c2oc(=O)n(Cc3nnc(-c4ccccc4Br)o3)c2c1 [Compound 6e]
CC0 (maximum nontoxic concentration) [1]: >100 µM
TC50 (concentration causing 50% host cells' death) [1]: >100 µM
IC50 [2]: > 100 µM

C=CCc1cc(-c2cc(CC=C)c3oc(=O)n(Cc4nnc(-c5cccc(Br)c5)o4)c3c2)c2oc(=O)n(Cc3nnc(-c4cccc(Br)c4)o3)c2c1 [Compound 6f]
CC0 (maximum nontoxic concentration) [1]: 50 µM
IC50 [2]: > 50 µM

C=CCc1cc(-c2cc(CC=C)c3oc(=O)n(Cc4nnc(-c5ccc(Br)cc5)o4)c3c2)c2oc(=O)n(Cc3nnc(-c4ccc(Br)cc4)o3)c2c1 [Compound 6g]
CC0 (maximum nontoxic concentration) [1]: 50 µM
IC50 [2]: > 50 µM

C=CCc1cc(-c2cc(CC=C)c3oc(=O)n(Cc4nnc(-c5ccccc5F)o4)c3c2)c2oc(=O)n(Cc3nnc(-c4ccccc4F)o3)c2c1 [Compound 6h]
CC0 (maximum nontoxic concentration) [1]: >100 µM
SI (selectivity index, TC50/IC50) [2]: >1.62
IC50 [2]: 61.6 ± 1.21 µM

C=CCc1cc(-c2cc(CC=C)c3oc(=O)n(Cc4nnc(-c5cccc(F)c5)o4)c3c2)c2oc(=O)n(Cc3nnc(-c4cccc(F)c4)o3)c2c1 [Compound 6i]
CC0 (maximum nontoxic concentration) [1]: >100 µM
TC50 (concentration causing 50% host cells' death) [1]: >100 µM
Antiviral entry activity (in words) [2]: complete loss of antiviral activities
IC50 [2]: > 100 µM

C=CCc1cc(-c2cc(CC=C)c3oc(=O)n(Cc4nnc(-c5ccc(F)cc5)o4)c3c2)c2oc(=O)n(Cc3nnc(-c4ccc(F)cc4)o3)c2c1 [Compound 6j]
CC0 (maximum nontoxic concentration) [1]: 50 µM
Antiviral entry activity (in words) [2]: complete loss of antiviral activities
IC50 [2]: > 50 µM

C=CCc1cc(-c2cc(CC=C)c3oc(=O)n(Cc4nnc(-c5ccccc5C)o4)c3c2)c2oc(=O)n(Cc3nnc(-c4ccccc4C)o3)c2c1 [Compound 6k]
CC0 (maximum nontoxic concentration) [1]: >100 µM
TC50 (concentration causing 50% host cells' death) [1]: >100 µM
IC50 [2]: > 100 µM

C=CCc1cc(-c2cc(CC=C)c3oc(=O)n(Cc4nnc(-c5cccc(C)c5)o4)c3c2)c2oc(=O)n(Cc3nnc(-c4cccc(C)c4)o3)c2c1 [Compound 6l]
CC0 (maximum nontoxic concentration) [1]: >100 µM
TC50 (concentration causing 50% host cells' death) [1]: >100 µM
IC50 [2]: > 100 µM

C=CCc1cc(-c2cc(CC=C)c3oc(=O)n(Cc4nnc(-c5ccc(C)cc5)o4)c3c2)c2oc(=O)n(Cc3nnc(-c4ccc(C)cc4)o3)c2c1 [Compound 6m]
CC0 (maximum nontoxic concentration) [1]: 50 µM
IC50 [2]: > 50 µM

C=CCc1cc(-c2cc(CC=C)c3oc(=O)n(Cc4nnc(-c5ccccc5OC)o4)c3c2)c2oc(=O)n(Cc3nnc(-c4ccccc4OC)o3)c2c1 [Compound 6n]
CC0 (maximum nontoxic concentration) [1]: 50 µM
IC50 [2]: > 50 µM

C=CCc1cc(-c2cc(CC=C)c3oc(=O)n(Cc4nnc(-c5cccc(OC)c5)o4)c3c2)c2oc(=O)n(Cc3nnc(-c4cccc(OC)c4)o3)c2c1 [Compound 6o]
CC0 (maximum nontoxic concentration) [1]: >100 µM
TC50 (concentration causing 50% host cells' death) [1]: >100 µM
IC50 [2]: > 100 µM

C=CCc1cc(-c2cc(CC=C)c3oc(=O)n(Cc4nnc(-c5ccc(OC)cc5)o4)c3c2)c2oc(=O)n(Cc3nnc(-c4ccc(OC)cc4)o3)c2c1 [Compound 6p]
CC0 (maximum nontoxic concentration) [1]: >100 µM
TC50 (concentration causing 50% host cells' death) [1]: >100 µM
inhibition at 12.5 µM ([4]; 12.5 µM): 26.1%
inhibition at 25 µM [4]: 37.2%
inhibition at 50 µM [4]: 50.4%
Interaction with spike RBD [5]: doesn’t show interaction
SI (selectivity index, TC50/IC50) [2]: >10.18
IC50 [2]: 9.82 ± 1.16 µM
Kd [3]: 6.87 ± 0.29 µM

C=CCc1ccc(O)c(-c2ccc(O)c(CC=C)c2)c1 [honokiol, reference compound]
CC0 (maximum nontoxic concentration) [1]: 50 µM
TC50 (concentration causing 50% host cells' death) [1]: 48.23 µM and 48.23 ± 1.19 µM
inhibition at 25 µM [4]: 13.8%
inhibition at 50 µM [4]: 20.9%
IC50 [2]: > 50 µM
Kd [3]: 17 ± 3.4 µM

— paper PMC8471451 (Pharmaceuticals, 2021)
